Reference: PubChem BioAssay (NCI)
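Grown in 96-well plates, cells were treated for 48 hours with each compound at five concentrations. Insufficient inhibition: endpoint recorded as highest concentration tested. At the GI50, growth is halved. TGI: total growth inhibition.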

Experiments:
Test in all cases: growth of human tumour cells (NCI), 48 h
[1] = system: OVCAR-5 ovarian
[2] = system: NCI-H23 lung
[3] = system: SF-268 CNS
[4] = system: HCC-2998 colon
[5] = system: SNB-19 CNS
[6] = system: SK-MEL-5 melanoma
[7] = system: DU-145 prostate
[8] = system: SW-620 colon
[9] = system: MALME-3M melanoma
[10] = system: UO-31 renal
[11] = system: CCRF-CEM leukemia
[12] = system: IGROV1 ovarian
[13] = system: OVCAR-3 ovarian
[14] = system: UACC-257 melanoma
[15] = system: HT29 colon
[16] = system: M14 melanoma
[17] = system: 786-0 renal
[18] = system: KM12 colon
[19] = system: MDA-MB-231 breast
[20] = system: A549 NSCLC
[21] = system: HCT-15 colon
[22] = system: ACHN renal
[23] = system: PC-3 prostate
[24] = system: K-562 leukemia
[25] = system: SNB-75 CNS
[26] = system: BT-549 breast
[27] = system: SK-OV-3 ovarian
[28] = system: A498 renal
[29] = system: T-47D breast
[30] = system: NCI/ADR-RES ovarian
[31] = system: COLO 205 colon
[32] = system: MDA-MB-435
[33] = system: RXF 393 renal
[34] = system: LOX IMVI melanoma
[35] = system: CAKI-1 renal
[36] = system: HCT-116 colon
[37] = system: NCI-H226 lung
[38] = system: UACC-62 melanoma
[39] = system: HS 578T breast
[40] = system: SK-MEL-28 melanoma
[41] = system: OVCAR-8 ovarian
[42] = system: HOP-92 NSCLC
[43] = system: SF-295 CNS
[44] = system: NCI-H522 lung
[45] = system: SF-539 CNS
[46] = system: HOP-62 NSCLC
[47] = system: SR leukemia
[48] = system: SN12C renal
[49] = system: SK-MEL-2 melanoma
[50] = system: EKVX NSCLC
[51] = system: NCI-H460 lung
[52] = system: TK-10 renal
[53] = system: HL-60(TB) leukemia
[54] = system: OVCAR-4 ovarian
[55] = system: U251 CNS
[56] = system: MCF7 breast

`COc1cc(-c2nc3sccn3c2-c2ccnc(NCCNS(=O)(=O)c3ccc(F)cc3)n2)ccc1F` was tested, and the GI50 [1] was 6.51 µM, the TGI [1] was over 100 µM and the GI50 [2] was 2.96 µM. For the same compound, the TGI [2] was over 100 µM, the GI50 [3] was 2.78 µM and the TGI [3] was over 100 µM. It also gave a GI50 [4] of 3.21 µM, a TGI [4] of over 100 µM and a GI50 [5] of 5.33 µM. The TGI [5] was over 100 µM, the GI50 [6] was 1.28 µM and the TGI [6] was 2.63 µM. The GI50 [7] was 2.42 µM, the TGI [7] was over 100 µM and the GI50 [8] was 5.05 µM. It also gave a TGI [8] of over 100 µM, a GI50 [9] of 2.07 µM and a TGI [9] of 7.38 µM. For the same compound, the GI50 [10] was 1.29 µM, the TGI [10] was over 100 µM and the GI50 [11] was 0.643 µM. The TGI [11] was over 100 µM, the GI50 [12] was 1.69 µM and the TGI [12] was over 100 µM. The GI50 [13] was 3.23 µM, the TGI [13] was over 100 µM and the GI50 [14] was 3.88 µM. It also gave a TGI [14] of over 100 µM, a GI50 [15] of 1.64 µM and a TGI [15] of over 100 µM. The GI50 [16] was 0.499 µM, the TGI [16] was over 100 µM and the GI50 [17] was 0.503 µM. For the same compound, the TGI [17] was over 100 µM, the GI50 [18] was 1.9 µM and the TGI [18] was over 100 µM. It also gave a GI50 [19] of 2.35 µM, a TGI [19] of over 100 µM and a GI50 [20] of 2.44 µM. The TGI [20] was over 100 µM, the GI50 [21] was 2.33 µM and the TGI [21] was over 100 µM. It also gave a GI50 [22] of 1.53 µM, a TGI [22] of over 100 µM and a GI50 [23] of 0.946 µM. It also gave a TGI [23] of over 100 µM, a GI50 [24] of 1.53 µM and a TGI [24] of over 100 µM. For the same compound, the GI50 [25] was 1.54 µM, the TGI [25] was over 100 µM and the GI50 [26] was 0.292 µM. It also gave a TGI [26] of over 100 µM, a GI50 [27] of 3.26 µM and a TGI [27] of over 100 µM. The GI50 [28] was 2.4 µM, the TGI [28] was over 100 µM and the GI50 [29] was 0.634 µM. The TGI [29] was 35.9 µM, the GI50 [30] was 1.94 µM and the TGI [30] was over 100 µM. The GI50 [31] was 1.98 µM, the TGI [31] was over 100 µM and the GI50 [32] was 1.11 µM. For the same compound, the TGI [32] was 5.5 µM, the GI50 [33] was 0.75 µM and the TGI [33] was 8.2 µM. It also gave a GI50 [34] of 1.65 µM, a TGI [34] of over 100 µM and a GI50 [35] of 2.53 µM. It also gave a TGI [35] of over 100 µM, a GI50 [36] of 0.362 µM and a TGI [36] of over 100 µM. For the same compound, the GI50 [37] was 1.95 µM, the TGI [37] was 6.05 µM and the GI50 [38] was 0.688 µM. For the same compound, the TGI [38] was 2.55 µM, the GI50 [39] was 1.88 µM and the TGI [39] was over 100 µM. The GI50 [40] was 3.28 µM, the TGI [40] was over 100 µM and the GI50 [41] was 2.12 µM. It also gave a TGI [41] of over 100 µM, a GI50 [42] of 2.49 µM and a TGI [42] of over 100 µM. The GI50 [43] was 2.87 µM, the TGI [43] was over 100 µM and the GI50 [44] was 2.12 µM. The TGI [44] was over 100 µM, the GI50 [45] was 4.86 µM and the TGI [45] was over 100 µM. For the same compound, the GI50 [46] was 4.82 µM, the TGI [46] was over 100 µM and the GI50 [47] was 2.51 µM. For the same compound, the TGI [47] was over 100 µM, the GI50 [48] was 1.89 µM and the TGI [48] was over 100 µM. For the same compound, the GI50 [49] was 2.24 µM, the TGI [49] was 7.27 µM and the GI50 [50] was 3.4 µM. For the same compound, the TGI [50] was over 100 µM, the GI50 [51] was 2.44 µM and the TGI [51] was over 100 µM. It also gave a GI50 [52] of 6.27 µM, a TGI [52] of over 100 µM and a GI50 [53] of 3.4 µM. For the same compound, the TGI [53] was over 100 µM, the GI50 [54] was 3.4 µM and the TGI [54] was over 100 µM. It also gave a GI50 [55] of 4.23 µM, a TGI [55] of over 100 µM and a GI50 [56] of 2 µM. The TGI [56] was over 100 µM.
